Measurements from PMC3413742 (Biological psychiatry, 2012).

Legend:
[1] = system: mice trained to discriminate cocaine (10 mg/kg) from saline; assay: Cocaine discrimination procedure; format: in vivo, mouse; settings: for substitution for the discriminative-stimulus effects of cocaine: pretreatment time 60 min
hDAT WT [2] = molecular target: T1, hDAT WT (Homo sapiens, UniProt Q01959); assay: [3H]DA uptake inhibition in COS-7 cells transiently expressing hDAT WT; format: cell-based
hDAT Y335A = hDAT Y335A (Homo sapiens, UniProt Q01959, Y335A); assay: [3H]DA uptake inhibition in COS-7 cells expressing hDAT Y335A mutant; format: cell-based
[3] = system: extracellular DA concentrations in the mouse NAc shell; assay: Microdialysis of extracellular DA in the NAc shell; format: in vivo
hDAT WT [4] = molecular target: T1, hDAT WT; assay: [3H]WIN 35,428 binding in COS-7 cells transiently expressing hDAT WT; settings: R- versus S-modafinil
DAT = settings: rat brain tissue; cited from earlier work
NET [5] = molecular target: T2, NET (Homo sapiens, UniProt P23975); assay: [3H]nisoxetine binding at the NET
NET [6] = molecular target: T2, NET; assay: [3H]DA uptake inhibition at the NET; format: cell-based

T2 sequence (P23975 whole entry): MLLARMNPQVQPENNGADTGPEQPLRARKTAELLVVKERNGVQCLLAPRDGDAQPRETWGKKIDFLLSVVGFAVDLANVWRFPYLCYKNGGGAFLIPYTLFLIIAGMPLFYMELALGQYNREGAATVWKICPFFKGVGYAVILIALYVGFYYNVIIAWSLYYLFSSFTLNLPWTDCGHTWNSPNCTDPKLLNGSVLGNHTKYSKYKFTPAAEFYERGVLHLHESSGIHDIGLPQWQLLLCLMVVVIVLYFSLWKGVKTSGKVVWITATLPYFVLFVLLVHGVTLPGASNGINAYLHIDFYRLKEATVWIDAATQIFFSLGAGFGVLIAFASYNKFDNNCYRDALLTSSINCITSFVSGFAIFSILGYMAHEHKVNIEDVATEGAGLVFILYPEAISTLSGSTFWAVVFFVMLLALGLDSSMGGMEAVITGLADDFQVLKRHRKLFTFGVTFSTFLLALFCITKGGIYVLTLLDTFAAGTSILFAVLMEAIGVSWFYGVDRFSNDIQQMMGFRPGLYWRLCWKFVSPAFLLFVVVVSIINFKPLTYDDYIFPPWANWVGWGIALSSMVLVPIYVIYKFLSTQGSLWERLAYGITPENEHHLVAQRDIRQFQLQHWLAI
T1 sequence (Q01959 whole entry): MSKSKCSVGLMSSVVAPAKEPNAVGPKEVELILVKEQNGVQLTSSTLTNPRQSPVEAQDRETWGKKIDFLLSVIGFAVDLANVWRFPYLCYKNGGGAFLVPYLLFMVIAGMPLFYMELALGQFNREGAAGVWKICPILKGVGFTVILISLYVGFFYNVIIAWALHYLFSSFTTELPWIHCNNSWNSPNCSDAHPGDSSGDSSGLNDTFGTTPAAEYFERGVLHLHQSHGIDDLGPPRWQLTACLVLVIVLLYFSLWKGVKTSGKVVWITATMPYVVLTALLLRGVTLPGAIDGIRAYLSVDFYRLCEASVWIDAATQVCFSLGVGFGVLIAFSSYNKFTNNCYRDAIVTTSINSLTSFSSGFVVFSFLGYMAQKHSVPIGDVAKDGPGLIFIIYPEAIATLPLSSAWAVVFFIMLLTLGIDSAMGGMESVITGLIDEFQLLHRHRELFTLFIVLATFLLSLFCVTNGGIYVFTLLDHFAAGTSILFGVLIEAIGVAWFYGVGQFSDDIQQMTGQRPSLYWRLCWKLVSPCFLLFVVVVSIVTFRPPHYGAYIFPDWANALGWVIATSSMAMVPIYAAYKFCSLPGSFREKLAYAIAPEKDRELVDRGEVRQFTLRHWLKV
Chain of hDAT Y335A (Q01959 whole entry Y335A): as the sequence (Q01959 whole entry) above, with Y335A counted along it

## NC(=O)C[S+]([O-])C(c1ccccc1)c1ccccc1 (racemic) [(±)-modafinil]
[1]
  substitution for the discriminative-stimulus effects of cocaine: fully substituted for cocaine
hDAT WT [2]
  [3H]DA uptake inhibition potency lower than observed for DA: more than 7 fold

## CCCCN1[C@@H]2CC[C@H]1CC(OC(c1ccc(F)cc1)c1ccc(F)cc1)C2 (stereo partly shown) [JHW 007]
hDAT Y335A
  Y335A:WT IC50 ratio for [3H]DA uptake inhibition: ~ 20 fold

## NC(=O)C[S@@+]([O-])C(c1ccccc1)c1ccccc1 [R-modafinil, R-(−)-modafinil]
[1]
  substitution for the discriminative-stimulus effects of cocaine: fully substituted for cocaine
[3]; 30, 100, 300 mg/kg i.p.
  extracellular DA levels, stimulation as % of DA basal levels: approximately 300 % of DA basal levels
  time after injection at which DA stimulation was reached: 40 to 60 min
hDAT WT [4]
  higher affinity for DAT than the S-enantiomer: ~ 3 fold
DAT
  higher affinity for the DAT than the S-enantiomer: ~ 3 fold
NET [5]
  IC50: > 100 µM
NET [6]
  IC50: > 100 µM

## NC(=O)C[S@+]([O-])C(c1ccccc1)c1ccccc1 [S-modafinil, S-(+)-modafinil]
[1]; cocaine 5 min, modafinils 60 min before testing
  ED50 Value, substitution for cocaine (95% confidence limits): 89.0 (64.0 – 115) μmol/kg
[1]
  substitution for the discriminative-stimulus effects of cocaine: fully substituted for cocaine
NET [5]; read-out: IC50, inhibition of [3H]nisoxetine binding at the NET, N=3, data not shown
  IC50: > 100 µM
NET [6]; read-out: IC50, inhibition of [3H]DA uptake at the NET, N=3, data not shown
  IC50: > 100 µM

## COC(=O)[C@H]1[C@@H](OC(=O)c2ccccc2)C[C@@H]2CC[C@H]1N2C [cocaine]
[3]; 10 – 55 mg/kg
  extracellular DA levels, maximum as % of basal levels: approximately 700 % of basal levels
  time after injection of maximum DA: ~ 30 min
